Earlier results as cited in patent US20090137653A1, “SUBSTITUTED BENZYLAMINES AS CYP2A INHIBITORS AND USES THEREOF TO TREAT NICOTINE DEPENDENCE” (INFLAYZME PHARMACEUTICALS LTD., priority 2005, published 2009).
pKi: −log10 of the molar value.

Columns and labels:
CYP2A6 = CYP2A6 (Homo sapiens, UniProt P11509); conditions: read-out: CYP2A6 Ki; human liver microsomes
Chain of CYP2A6 (P11509 whole entry): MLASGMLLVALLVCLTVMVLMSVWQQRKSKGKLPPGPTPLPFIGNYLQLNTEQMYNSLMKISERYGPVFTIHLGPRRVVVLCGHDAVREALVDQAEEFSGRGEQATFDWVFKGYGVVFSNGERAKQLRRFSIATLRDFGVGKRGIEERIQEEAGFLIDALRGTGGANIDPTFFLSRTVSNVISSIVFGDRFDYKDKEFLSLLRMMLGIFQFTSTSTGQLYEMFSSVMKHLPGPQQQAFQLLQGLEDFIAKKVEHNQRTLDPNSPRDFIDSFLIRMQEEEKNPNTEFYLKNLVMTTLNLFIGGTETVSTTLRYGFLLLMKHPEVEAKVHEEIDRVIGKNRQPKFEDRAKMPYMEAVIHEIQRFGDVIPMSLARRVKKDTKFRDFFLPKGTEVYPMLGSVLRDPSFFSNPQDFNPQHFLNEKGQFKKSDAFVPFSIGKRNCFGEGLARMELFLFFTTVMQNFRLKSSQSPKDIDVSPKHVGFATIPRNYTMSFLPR

SMILES	pKi (CYP2A6)	half-life (in vivo) [h]	eliminated by first pass effect (taken orally, liver)
N[C@@H]1C[C@H]1c1ccccc1 (racemic) [tranylcypromine]	6.70	–	–
CN1CCCC1c1cccnc1 (stereo not drawn) [nicotine]	–	1 to 2	around 70%
